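How tested: cells in 96-well plates exposed to compound for 48 hours at five concentrations. TGI: total growth inhibition.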 Where a SMILES comes first, the peptide text is derived from it.
Tests used:
Experiment in all cases: NCI-60 cell line screen, 48 h
HCC-2998 colon = test system: HCC-2998 colon
SF-295 CNS = test system: SF-295 CNS
OVCAR-4 ovarian = test system: OVCAR-4 ovarian
MDA-MB-435 = test system: MDA-MB-435
MDA-MB-231 breast = test system: MDA-MB-231 breast
SK-OV-3 ovarian = test system: SK-OV-3 ovarian
EKVX NSCLC = test system: EKVX NSCLC
HCT-116 colon = test system: HCT-116 colon
TK-10 renal = test system: TK-10 renal
ACHN renal = test system: ACHN renal
SF-539 CNS = test system: SF-539 CNS

SMILES	TGI (HCC-2998 colon)	TGI (SF-295 CNS)	TGI (OVCAR-4 ovarian)	TGI (MDA-MB-435)	TGI (MDA-MB-231 breast)	TGI (SK-OV-3 ovarian)	TGI (EKVX NSCLC)	TGI (HCT-116 colon)	TGI (TK-10 renal)	TGI (ACHN renal)	TGI (SF-539 CNS)
CC(Cc1ccc2c(c1)OCO2)N(C)C(=O)C1=CCN(C)CC1 (stereo unspecified)	> 100 µM	> 100 µM	> 100 µM	> 100 µM	> 100 µM	> 100 µM	> 100 µM	> 100 µM	> 100 µM	> 100 µM	–
CC(=O)NC(CO)C(=O)NC(Cc1ccc(O)cc1)C(=O)NCC(N)=O (stereo not drawn) (Ac-Ser-Tyr-Gly-NH2; configuration not given here)	> 100 µM	> 100 µM	> 100 µM	> 100 µM	> 100 µM	> 100 µM	> 100 µM	> 100 µM	> 100 µM	> 100 µM	> 100 µM
CCOC(=O)NC(=S)NC(C)c1ccccc1 (stereo unspecified)	> 100 µM	> 100 µM	> 100 µM	> 100 µM	> 100 µM	> 100 µM	> 100 µM	> 100 µM	> 100 µM	> 100 µM	–
CCOP(=O)(OCC)C(=C1C=C(C(C)(C)C)C(=O)C(C(C)(C)C)=C1)P(=O)(OCC)OCC	> 10 µM	> 10 µM	3.5 µM	> 10 µM	> 10 µM	> 10 µM	> 10 µM	5.67 µM	> 7.39 µM	> 3.16 µM	> 10 µM
CCCc1cc(-c2ccc(-c3cc(CCC)c(C=O)[nH]3)s2)[nH]c1C=O	22.9 µM	> 92.4 µM	> 100 µM	> 100 µM	> 100 µM	> 100 µM	> 100 µM	> 100 µM	> 100 µM	> 100 µM	> 100 µM
CSc1nc(-c2ccc(Cl)cc2)c(C#N)c(=O)[nH]1	> 100 µM	> 100 µM	> 100 µM	> 100 µM	> 100 µM	> 100 µM	> 100 µM	> 100 µM	> 100 µM	> 100 µM	> 100 µM
CC(=O)Nc1nnc(S(=O)(=O)NC(=S)Nc2ccc(Cl)cc2)s1	> 100 µM	> 100 µM	> 100 µM	> 100 µM	> 100 µM	> 100 µM	> 100 µM	> 100 µM	> 100 µM	> 100 µM	> 100 µM
N#CCN(Cc1ccccc1)[C@@H]1CCC[C@]1(O)C#Cc1ccc2c(c1)OCO2	31.5 µM	41.8 µM	31.2 µM	42.1 µM	36.1 µM	90.1 µM	55.5 µM	–	57.2 µM	36 µM	42.3 µM
CC1=C(C)C(=O)C(C2=C(C3=CC(=O)C(C)=C(C)C3=O)C(=O)c3ccccc3C2=O)=CC1=O	16.3 µM	27.9 µM	4 µM	3.05 µM	6.23 µM	30.5 µM	5.81 µM	5.31 µM	15.9 µM	6.71 µM	10.5 µM
Cn1nc(C(=O)N2CC(CCl)c3c2cc([N+](=O)[O-])c2ccccc32)cc1NC(=O)Nc1cc(C(=O)N2CC(CCl)c3c2cc([N+](=O)[O-])c2ccccc32)nn1C (stereo unspecified)	> 100 µM	> 100 µM	> 100 µM	> 100 µM	> 100 µM	> 100 µM	> 100 µM	> 100 µM	> 100 µM	> 100 µM	70.2 µM
CC1(C)CC2(C)ON=C(c3ccccc3)N2c2ccccc2N1 (stereo unspecified)	> 100 µM	> 100 µM	> 100 µM	39.8 µM	28.7 µM	53 µM	77 µM	28 µM	91.8 µM	68.8 µM	40.1 µM
CSc1nc(C)c(CCCl)c(Cl)n1	> 100 µM	> 100 µM	> 100 µM	> 100 µM	> 100 µM	> 100 µM	> 100 µM	> 100 µM	> 100 µM	> 100 µM	> 100 µM
Cc1nc(Nc2nc3ccccc3[nH]2)[nH]c(=O)c1CCO	> 100 µM	> 100 µM	> 100 µM	> 100 µM	> 100 µM	> 82.1 µM	> 100 µM	> 100 µM	> 81.4 µM	> 100 µM	> 65.3 µM
CC(C)OP(=O)(OC(C)C)C(Nc1cccc(C(F)(F)F)c1)c1ccccc1 (stereo unspecified)	> 100 µM	> 100 µM	> 100 µM	> 100 µM	> 100 µM	> 100 µM	> 100 µM	> 100 µM	> 100 µM	> 100 µM	> 100 µM
COc1cccc(C(=O)N[C@@H]2[C@H](O)[C@@H](CO)O[C@H]2n2cnc3c(N)ncnc32)c1	> 100 µM	> 100 µM	> 100 µM	> 100 µM	> 100 µM	> 100 µM	> 100 µM	> 100 µM	> 100 µM	> 100 µM	> 100 µM
CC(=O)C1C(=O)C(=O)N(c2ccc(Br)cc2)C1=O (stereo unspecified)	> 100 µM	> 100 µM	> 100 µM	> 100 µM	> 100 µM	> 100 µM	> 100 µM	> 100 µM	> 100 µM	> 100 µM	> 100 µM
O=[N+]([O-])c1ccc2[nH]c(O)c(N=NC(=S)Nc3ccccc3)c2c1	12.4 µM	16.6 µM	29.2 µM	26.9 µM	24.8 µM	28.2 µM	9.2 µM	18.6 µM	23.6 µM	19.5 µM	27.6 µM
NCCC1([N+](=O)[O-])CCNCC1	> 100 µM	> 100 µM	> 100 µM	> 100 µM	> 100 µM	> 100 µM	> 100 µM	> 100 µM	> 100 µM	> 100 µM	> 100 µM
Nc1cc(N)c(N=Nc2cccc3c(S(=O)(=O)O)cccc23)cc1N=Nc1cc([N+](=O)[O-])ccc1O	79.9 µM	> 100 µM	> 100 µM	> 100 µM	> 100 µM	> 100 µM	> 100 µM	> 100 µM	> 100 µM	78.1 µM	> 100 µM

Reference: PubChem BioAssay (NCI)
